Data as given in ChEMBL document CHEMBL5625273, “Antiproliferative activities through accelerating autophagic flux by basidalin and its analogs in human cancer cells” (Bioorg Med Chem Lett, 2024).
The source made the active and inactive calls. The calls are words filed in the database; no cut-off is given here.

How the values were obtained:
Format in all cases: functional, cell-based
MCF7 = experiment: Antiproliferative activity against human MCF7 cells by MTT assay
HCT-116 = experiment: Antiproliferative activity against human HCT-116 cells by MTT assay
PC-3 = experiment: Antiproliferative activity against human PC-3 cells by MTT assay
SK-MEL-28 = experiment: Antiproliferative activity against human SK-MEL-28 cells by MTT assay
HT-1080 = experiment: Antiproliferative activity against human HT-1080 cells by MTT assay
HeLa [1] = experiment: Antiproliferative activity against human HeLa cells by MTT assay
HeLa [2] = experiment: Induction of autophagic flux in human HeLa cells assessed as increase in LC3-II expression at 30 to 100 uM incubated for 24 hrs in presence of pepA by Western blot analysis; details: dose 30-100 µM
SH-SY5Y [3] = experiment: Induction of autophagic flux in human SH-SY5Y cells expressing GFP-LC3 assessed as increase in LC3 punctae co-localized with LAMP1 at 30 to 100 uM incubated for 24 hrs in presence of E64D; details: dose 30-100 µM
HeLa [4] = experiment: Induction of autophagic flux in human HeLa cells assessed as increase in LC3-II expression at 30 to 100 uM incubated for 24 hrs in presence of E64D by Western blot analysis; details: dose 30-100 µM
PANC-1 = experiment: Antiproliferative activity against human PANC-1 cells by MTT assay
HeLa [5] = experiment: Effect on p70S6K phosphorylation in human HeLa cells at 1 to 30 uM incubated for 24 hrs by Western blot analysis; details: dose 1-30 µM
SH-SY5Y [6] = experiment: Induction of autophagic flux in human SH-SY5Y cells expressing GFP-LC3 assessed as increase in LC3 punctae co-localized with LAMP1 at 30 to 100 uM incubated for 24 hrs in presence of pepA; details: dose 30-100 µM
HeLa [7] = experiment: Induction of autophagy in human HeLa cells assessed as increase in LC3-II expression incubated for 24 hrs by Western blot analysis; details: dose 1-30 µM
HeLa [8] = experiment: Induction of autophagy in human HeLa cells assessed as increase in LC3-II expression at 100 uM incubated for 24 hrs by Western blot analysis
HeLa [9] = experiment: Effect on p70S6K phosphorylation in human HeLa cells at 100 uM incubated for 24 hrs by Western blot analysis

Row | IC50 (MCF7) [µM] | IC50 (HCT-116) [µM] | IC50 (PC-3) [µM] | IC50 (SK-MEL-28) [µM] | IC50 (HT-1080) [µM] | IC50 (HeLa [1]) [µM] | IC50 (PANC-1) [µM] | Compound | Activity (HeLa [2]) | Activity (SH-SY5Y [3]) | Activity (HeLa [4]) | Activity (HeLa [5]) | Activity (SH-SY5Y [6]) | Activity (HeLa [7]) | Activity (HeLa [8]) | Activity (HeLa [9])
1 | 7.87 | 5.35 | 9.79 | 5.87 | 11.6 | 15.6 | 5.29 | NC1=CC(=O)O/C1=C/C=O | Active | Active | Active | inactive | Active | Dose-Dependent Effect |  | 
2 | > 100 | > 100 | > 100 | > 100 | > 100 | > 100 | > 100 | NC1=CC(=O)O/C1=C/CO |  |  |  |  |  |  |  | 
3 | 38.8 | 27.2 | 21.7 | 12.3 | 46.1 | 27.7 | 16.1 | CC(=O)NC1=CC(=O)O/C1=C/C=O |  |  |  |  |  |  | Active | inactive
4 | > 100 | > 100 | > 100 | > 100 | > 100 | > 100 | > 100 | NC1=CC(=O)OC1CCO (stereo not given) |  |  |  |  |  |  |  | 
5 | 22.4 | 29.9 | 42.6 | 37.1 | 40.8 | 44.8 | 31.3 | CC(=O)NC1=CC(=O)O/C1=C/C(OC(C)=O)OC(C)=O |  |  |  |  |  |  | Active | inactive
